Test results reported in patent US10130651B2, “RNAi Therapy for Hepatitis B Virus Infection” (Arrowhead Pharmaceuticals, Inc., priority 2015, dated 2018).

Assays:
Format in all cases: in vivo, NOD-SCID mice (pHBV model)
HBsAg, Hepatitis B Virus [1] = assay: Serum HBsAg in pHBV mice after MLP delivery peptide plus AD01385 and/or AD01386 (Example 10, Tables 17, 18); conditions: 3 mg/kg MLP delivery peptide plus […] of each RNAi trigger; for Mean HBsAg in serum: single IV
HBsAg, Hepatitis B Virus [2] = assay: as above; conditions: 3 mg/kg MLP delivery peptide plus […] of each RNAi trigger; for Mean HBsAg in serum: single IV; remark: listed apart in the source
Experimental: At day −28, 6 to 8 week old female NOD.CB17-Prkdscid/NcrCrl (NOD-SCID) mice were transiently transfected in vivo with MC-HBV 1.3 by hydrodynamic tail vein injection as described.
CDM-NAG was added to MLP, SEQ ID NO: 650 (GIL MLP, L-form), in a 250 mM HEPES-buffered aqueous solution at a 5:1 (w/w) ratio at room temperature and incubated for 30 min to yield MLP delivery peptide. The reaction mixture was adjusted to pH 9.0 with 4 M NaOH. The extent of the reaction was assayed using 2,4,6-trinitrobenzene-sulfonic acid and determined to be >95%. MLP delivery peptide was purified by tangential flow in 10 mM bicarbonate buffer, pH 9.0, to which 10% dextran (w/w) was added. The final purified material was lyophilized.
5 mg lyophilized MLP delivery peptide was resuspended with 1 mL water. MLP delivery peptide was then combined with HBV RNAi triggers (AD01385 or AD01386) at the various dose levels.
At Day 1, each mouse was given a single IV administration via tail vein of 200 μl per 20 gram body weight of saline containing MLP delivery peptide+HBV RNAi triggers.
At various time points, before and after administration of MLP delivery peptide+HBV RNAi triggers, serum HBsAg and serum HBV DNA were measured. The HBsAg level in serum for each animal at a time point was divided by the pre-treatment level in that animal in order to determine the ratio of HBsAg in serum “normalized to pre-treatment”. The HBV DNA level in serum for each group at a time point was also divided by the pre-treatment level in that group in order to determine the ratio of HBV DNA in serum “normalized to pre-treatment”. In order to account for non-treatment related decline in expression of MC-HBV 1.3 or pHBV 1.3.—the “normalized to pre-treatment” ratio for an individual animal at a time point was then divided by the average “normalized to pre-treatment” ratio of all mice in the saline control group at the same time point to obtain the ratio of HBsAg, or HBV DNA, in serum “normalized to pre-treatment and control”.
Mice were anesthetized with 2-3% isoflurane and blood samples were collected from the submandibular area into serum separation tubes (Sarstedt AG & Co., Nümbrecht, Germany). Blood was allowed to coagulate at ambient temperature for 20 min. The tubes were centrifuged at 8,000×g for 3 min to separate the serum and stored at 4° C.
Serum Hepatitis B surface antigen (HBsAg) and Serum HBV DNA levels were measured as described.

[3] = system: HBV DNA, Hepatitis B Virus; assay: Serum HBV DNA in pHBV mice after MLP delivery peptide plus AD01385 and/or AD01386 (Example 10, Tables 19, 20); conditions: 3 mg/kg MLP delivery peptide plus […] of each RNAi trigger; for Mean HBV DNA in serum: single IV

## AD01385: duplex AM02315-AS/AM02319-SS (TEG) (antisense TAUGAUAAAACGCCGCAGATT; sense UAUUCUGCGGCGUUUUAUCAUAT; siRNA; TEG, chemistry not fully specified)
HBsAg, Hepatitis B Virus [1]; day 8
  Mean HBsAg in serum: 1905 ± 1232 ng/mL
HBsAg, Hepatitis B Virus [1]; day 15
  Mean HBsAg in serum: 2309 ± 1315 ng/mL
HBsAg, Hepatitis B Virus [1]; day 29
  Mean HBsAg in serum: 2418 ± 1470 ng/mL
HBsAg, Hepatitis B Virus [1]; day −2 (pre-dose)
  Mean HBsAg in serum: 7218 ± 4071 ng/mL
  HBsAg in serum (mean ± SD) (normalized to pre-dose and saline control group): 1.000 ± 0.000
HBsAg, Hepatitis B Virus [1]; day 36
  HBsAg in serum (mean ± SD) (normalized to pre-dose and saline control group): 0.592 ± 0.140
HBsAg, Hepatitis B Virus [2]; day 5
  Mean HBsAg in serum: 878 ± 697 ng/mL
  HBsAg in serum (mean ± SD) (normalized to pre-dose and saline control group): 0.108 ± 0.026
HBsAg, Hepatitis B Virus [2]; day 22
  Mean HBsAg in serum: 2163 ± 1255 ng/mL
  HBsAg in serum (mean ± SD) (normalized to pre-dose and saline control group): 0.589 ± 0.109
HBsAg, Hepatitis B Virus [2]; day 36
  Mean HBsAg in serum: 2067 ± 870 ng/mL
HBsAg, Hepatitis B Virus [2]; day 8
  HBsAg in serum (mean ± SD) (normalized to pre-dose and saline control group): 0.282 ± 0.030
HBsAg, Hepatitis B Virus [2]; day 15
  HBsAg in serum (mean ± SD) (normalized to pre-dose and saline control group): 0.665 ± 0.135
HBsAg, Hepatitis B Virus [2]; day 29
  HBsAg in serum (mean ± SD) (normalized to pre-dose and saline control group): 0.660 ± 0.175
[3]; day 5
  Mean HBV DNA in serum: 9.84 × 10^6 copies/mL
  Mean HBV DNA in serum (normalized to pre-dose and saline control group): 0.050 ± 0.000
[3]; day 8
  Mean HBV DNA in serum: 1.64 × 10^7 copies/mL
  Mean HBV DNA in serum (normalized to pre-dose and saline control group): 0.087 ± 0.020
[3]; day 15
  Mean HBV DNA in serum: 7.69 × 10^7 copies/mL
  Mean HBV DNA in serum (normalized to pre-dose and saline control group): 0.474 ± 0.029
[3]; day 22
  Mean HBV DNA in serum: 7.60 × 10^7 copies/mL
  Mean HBV DNA in serum (normalized to pre-dose and saline control group): 0.510 ± 0.074
[3]; day 29
  Mean HBV DNA in serum: 7.69 × 10^7 copies/mL
  Mean HBV DNA in serum (normalized to pre-dose and saline control group): 0.571 ± 0.034
[3]; day 36
  Mean HBV DNA in serum: 6.91 × 10^7 copies/mL
  Mean HBV DNA in serum (normalized to pre-dose and saline control group): 0.582 ± 0.040
[3]; day −2 (pre-dose)
  Mean HBV DNA in serum: 2.04 × 10^8 copies/mL
  Mean HBV DNA in serum (normalized to pre-dose and saline control group): 1.000 ± 0.000

## AD01386: duplex AM02312-AS/AM02320-SS (C6) (antisense TACCAAUUUAUGCCUACAGTT; sense UAUCUGUAGGCAUAAAUUGGUAT; siRNA; C6, chemistry not fully specified)
HBsAg, Hepatitis B Virus [1]; day 8
  Mean HBsAg in serum: 109 ± 120 ng/mL
HBsAg, Hepatitis B Virus [1]; day 15
  Mean HBsAg in serum: 273 ± 321 ng/mL
HBsAg, Hepatitis B Virus [1]; day 29
  Mean HBsAg in serum: 1627 ± 1487 ng/mL
HBsAg, Hepatitis B Virus [1]; day −2 (pre-dose)
  Mean HBsAg in serum: 6219 ± 5606 ng/mL
  HBsAg in serum (mean ± SD) (normalized to pre-dose and saline control group): 1.000 ± 0.000
HBsAg, Hepatitis B Virus [1]; day 36
  HBsAg in serum (mean ± SD) (normalized to pre-dose and saline control group): 0.808 ± 0.151
HBsAg, Hepatitis B Virus [2]; day 5
  Mean HBsAg in serum: 125 ± 98 ng/mL
  HBsAg in serum (mean ± SD) (normalized to pre-dose and saline control group): 0.021 ± 0.007
HBsAg, Hepatitis B Virus [2]; day 22
  Mean HBsAg in serum: 738 ± 670 ng/mL
  HBsAg in serum (mean ± SD) (normalized to pre-dose and saline control group): 0.237 ± 0.041
HBsAg, Hepatitis B Virus [2]; day 36
  Mean HBsAg in serum: 2252 ± 1565 ng/mL
HBsAg, Hepatitis B Virus [2]; day 8
  HBsAg in serum (mean ± SD) (normalized to pre-dose and saline control group): 0.016 ± 0.008
HBsAg, Hepatitis B Virus [2]; day 15
  HBsAg in serum (mean ± SD) (normalized to pre-dose and saline control group): 0.078 ± 0.027
HBsAg, Hepatitis B Virus [2]; day 29
  HBsAg in serum (mean ± SD) (normalized to pre-dose and saline control group): 0.526 ± 0.045
[3]; day 5
  Mean HBV DNA in serum: 4.42 × 10^6 copies/mL
  Mean HBV DNA in serum (normalized to pre-dose and saline control group): 0.020 ± 0.002
[3]; day 8
  Mean HBV DNA in serum: 2.37 × 10^6 copies/mL
  Mean HBV DNA in serum (normalized to pre-dose and saline control group): 0.011 ± 0.002
[3]; day 15
  Mean HBV DNA in serum: 1.04 × 10^8 copies/mL
  Mean HBV DNA in serum (normalized to pre-dose and saline control group): 0.153 ± 0.004
[3]; day 22
  Mean HBV DNA in serum: 4.94 × 10^7 copies/mL
  Mean HBV DNA in serum (normalized to pre-dose and saline control group): 0.303 ± 0.048
[3]; day 29
  Mean HBV DNA in serum: 1.04 × 10^8 copies/mL
  Mean HBV DNA in serum (normalized to pre-dose and saline control group): 0.710 ± 0.080
[3]; day 36
  Mean HBV DNA in serum: 9.53 × 10^7 copies/mL
  Mean HBV DNA in serum (normalized to pre-dose and saline control group): 0.728 ± 0.022
[3]; day −2 (pre-dose)
  Mean HBV DNA in serum: 2.24 × 10^8 copies/mL
  Mean HBV DNA in serum (normalized to pre-dose and saline control group): 1.000 ± 0.000
